From patent US20230105212A1, “BIPHENYL DERIVATIVE INHIBITOR, PREPARATION METHOD THEREFOR AND USE THEREOF” (SHANGHAI HANSOH BIOMEDICAL CO., LTD., priority 2020, published 2023)

Assays:
human PD-1/PD-L1 binding = molecular target: T1, human PD-1/PD-L1 binding (Homo sapiens, UniProt Q9NZQ7); assay: Inhibition of human PD-1/PD-L1 binding (TR-FRET/HTRF); conditions: TR-FRET, PD-L1-His and PD-1-Fc; read-out: PD-1/PD-L1 binding IC50
T1 construct: PD-L1-His protein (19 to 238 amino acids) (Abcam #ab167713); purchased Abcam (PD-L1-His); R&D (PD-1-Fc) ab167713; 1086-PD
T1 sequence (Q9NZQ7 19-238): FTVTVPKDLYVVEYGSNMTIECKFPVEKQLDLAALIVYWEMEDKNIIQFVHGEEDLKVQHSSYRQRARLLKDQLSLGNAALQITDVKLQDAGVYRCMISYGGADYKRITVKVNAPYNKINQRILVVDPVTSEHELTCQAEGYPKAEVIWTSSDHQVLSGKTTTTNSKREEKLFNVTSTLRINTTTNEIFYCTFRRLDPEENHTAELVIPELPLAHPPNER
From the text: Test Embodiment 1: Test of Inhibitory Effect of the Compounds of the Present Disclosure on Human PD-1/PD-L1 Binding
Experimental purpose: The purpose of this test embodiment was to measure the inhibitory activity of the compounds on human PD-1/PD-L1 binding.
Experimental reagents: Binding Domain diluent buffer was purchased from Cisbio Company, Cat. No.: 62DLBDDF; MAb Anti-6HIS Eu cryptate Gold was purchased from Cisbio Company with the article number of 61HI2KLA; PAb Anti Human IgG-XL665 was purchased from Cisbio Company with the article number of 61HFCXLB; PD-L1-His protein was purchased from Abcam Company with the article number of ab167713; PD-1-Fc protein was purchased from R&D Company with the article number of 1086-PD; Detection buffer was purchased from Cisbio Company with the article number of 62SDBRDD; 384-well plate was purchased from PerkinElmer Company with the article number of 6007290.
Experimental method: In order to test the inhibitory activity of the compounds on human PD-1/PD-L1 binding, the method of time-resolved fluorescence resonance energy transfer (TR-FRET) was used in this experiment to test the inhibition of the compounds on human PD-1/PD-L1 binding, and the half inhibitory concentration IC50 of inhibitory activity of the compounds on human PD-1/PD-L1 binding was obtained.
This experiment was performed in a 384-well plate with a total reaction volume of 20 μL. Compounds were diluted to different concentrations (10 μM or 1 μM starting, 3-fold dilution, 11 doses) using assay buffer Binding Domain diluent buffer (Cisbio #62DLBDDF), then PD-L1-His protein (19 to 238 amino acids) (Abcam #ab167713) was diluted to 10 nM with assay buffer, and PD-1-Fc protein (25 to 167 amino acids) (R&D #1086-PD) was diluted to 20 nM with assay buffer; the compound, PD-L1 protein and PD-1 protein were added to a 384-well plate respectively, and the total volume was 10 μL, then centrifuged at 1000 rpm for 1 minute to mix well, and incubated for 60 minutes at room temperature. Then 10 μL of a mixed solution of MAb Anti-6HIS Eu cryptate Gold (Cisbio #61HI2KLA) and PAb Anti Human IgG-XL665 (Cisbio #61HFCXLB) diluted by HTRF Detection buffer was added to each well, and centrifuged at 1000 rpm for 1 minute to mix well. The reaction was carried out at room temperature for 3 hours or at 4° C. overnight, then a microplate reader (BioTek Synergy H1) was put into for reading; the excitation wavelength was 340 nm, and the emission wavelengths were 620 nm and 665 nm.
The ratio of fluorescence readings at 620 nm and 665 nm (665 nm/620 nm) was calculated, and the inhibition rate was calculated.

[1] = molecular target: T2, PD-L1 protein on the surface of MC38-hPDL1 tumor cells (Homo sapiens, UniProt Q9NZQ7); assay: Induction of endocytosis of PD-L1 on the surface of tumor cells (flow cytometry); format: cell-based; conditions: 16 hours incubation; for Emax: MC38-hPDL1 cells, read-out: MC38 maximum endocytosis rate; for IC50: inducing endocytosis of PD-L1, MC38-hPDL1 cells, read-out: MC38 IC50
T2 construct: expressed in transfected cells; host or cells: MC38-hPDL1 (mouse colon cancer cells)
T2 sequence (Q9NZQ7 19-290): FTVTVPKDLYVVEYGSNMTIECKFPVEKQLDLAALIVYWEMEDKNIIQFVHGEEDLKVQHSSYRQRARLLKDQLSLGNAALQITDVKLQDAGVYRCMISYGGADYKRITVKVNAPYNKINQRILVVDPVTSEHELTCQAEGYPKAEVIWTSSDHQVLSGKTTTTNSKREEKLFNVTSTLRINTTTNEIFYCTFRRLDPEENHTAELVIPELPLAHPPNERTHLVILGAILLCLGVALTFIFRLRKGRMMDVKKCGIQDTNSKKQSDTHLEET
From the text: Test Embodiment 2. Test of the Activity of Compounds of the Present Disclosure on Inducing the Endocytosis of PD-L1 Protein on the Surface of Tumor Cells
Experimental purpose: The purpose of this test embodiment was to test the activity of the compound on inducing the endocytosis of PD-L1 on the surface of tumor cells.
Experimental method: In order to test the activity of the compound on inducing the endocytosis of PD-L1, in this experiment, the activity of the compound on inducing the endocytosis of PD-L1 was tested by detecting the change degree of PD-L1 on the tumor cell surface with fluorescently labeled anti-PD-L1 antibody, and the IC50 of activity of the compound on inducing the endocytosis of PD-L1 was obtained.
The mouse colon cancer cells MC38-hPDL1 with high expression of hPD-L1 were collected, and adjusted to a suitable density and plated in a 24-well plate, and placed in a 37° C., 5% CO2 incubator to adhere overnight. Compounds were prepared into different concentrations by medium and added to a 24-well plate, and a vehicle control well was set up. After the cells were incubated in a 37° C., 5% CO2 incubator for 16 hours, the 24-well plate was taken out, and MC38-hPDL1 cells with different treatments in the plate were collected. After the cells were washed once with FACS buffer (PBS containing 0.5% BSA), and the cells were prepared to an appropriate density with FACS buffer. PE Mouse Anti-Human CD274 antibody (BD Pharmingen #557924) was added, and the cells were shaken at room temperature and incubated for 30 minutes without light, then the cells were washed twice with FACS buffer, resuspended in 100 μL of PBS, and a flow cytometer was used to detect the fluorescent signal on the cell surface, and the isotype control was set as a negative control.
The endocytosis rate of the compounds was calculated from the fluorescence signals of different treatment groups, and the compound concentration and endocytosis rate were fitted by nonlinear regression using GraphPad Prism software, and IC50 values were obtained, as shown in Table 2.

## COc1cc(NCc2cnc(C(=O)Nc3cccc(-c4cccc(NC(=O)c5nc6c(n5C)CCN(C)C6)c4Cl)c3C)cc2OC)ccn1 [Embodiment 1, N-(2-Chloro-3′-(4-methoxy-5-(((2-methoxypyridin-4-yl)amino)methyl)picolinamido)-2′-methyl-[1,1′-biphenyl]-3-yl)-1,5-dimethyl-4,5,6,7-tetrahydro-1H-imidazo[4,5-c]pyridine-2-carboxamide]
Human PD-1/PD-L1 binding
  IC50: 6.9 nM
[1]
  Emax: 88%
  IC50: 3.4 nM

## COc1cc(NCc2cnc(C(=O)Nc3cccc(-c4cccc(NC(=O)c5nc6c(n5C)CCN(C)C6)c4Cl)c3Cl)cc2OC)ccn1 [Embodiment 2, N-(2,2′-Dichloro-3′-(4-methoxy-5-(((2-methoxypyridin-4-yl)amino)methyl)picolinamido)-[1,1′-biphenyl]-3-yl)-1,5-dimethyl-4,5,6,7-tetrahydro-1H-imidazo[4,5-c]pyridine-2-carboxamide]
Human PD-1/PD-L1 binding
  IC50: 5 nM
[1]
  Emax: 89%
  IC50: 4.6 nM

## COc1cc(C(=O)Nc2cccc(-c3cccc(NC(=O)c4nc5c(n4C)CCN(C)C5)c3Cl)c2C)ncc1CNc1cc(C)ccn1 [Embodiment 11, N-(2-Chloro-3′-(4-methoxy-5-(((4-methylpyridin-2-yl)amino)methyl)picolinamido)-2′-methyl-[1,1′-biphenyl]-3-yl)-1,5-dimethyl-4,5,6,7-tetrahydro-1H-imidazo[4,5-c]pyridine-2-carboxamide]
Human PD-1/PD-L1 binding
  IC50: 5.1 nM
[1]
  Emax: 85%
  IC50: 8.1 nM

## COc1cc(C(=O)Nc2cccc(-c3cccc(NC(=O)c4nc5c(n4C)CCN(C)C5)c3Cl)c2C)ncc1CNCCF [Embodiment 18, N-(2-Chloro-3′-(5-(((2-fluoroethyl)amino)methyl)-4-methoxypicolinamido)-2′-methyl-[1,1′-biphenyl]-3-yl)-1,5-dimethyl-4,5,6,7-tetrahydro-1H-imidazo[4,5-c]pyridine-2-carboxamide]
Human PD-1/PD-L1 binding
  IC50: 2.4 nM
[1]
  Emax: 91%
  IC50: 1.5 nM

## COc1cc(C(=O)Nc2cccc(-c3cccc(NC(=O)c4nc5c(n4C)CCN(C)C5)c3Cl)c2C)ncc1CN1CC(F)(CO)COC1=O (stereo not shown) [Embodiment 22, N-(2-Chloro-3′-(5-((5-fluoro-5-(hydroxymethyl)-2-carbonyl-1,3-oxazinan-3-yl)methyl)-4-methoxypicolinamido)-2′-methyl-[1,1′-biphenyl]-3-yl)-1,5-dimethyl-4,5,6,7-tetrahydro-1H-imidazo[4,5-c]pyridine-2-carboxamide]
Human PD-1/PD-L1 binding
  IC50: 5.9 nM
[1]
  Emax: 92%
  IC50: 14.5 nM

## COc1cc(C(=O)Nc2cccc(-c3cccc(NC(=O)c4nc5c(n4C)CCN(C)C5)c3Cl)c2C)ncc1CNC1CCOCC1 [Embodiment 35, N-(2-Chloro-3′-(4-methoxy-5-(((tetrahydro-2H-pyran-4-yl)amino)methyl)picolinamido)-2′-methyl-[1,1′-biphenyl]-3-yl)-1,5-dimethyl-4,5,6,7-tetrahydro-1H-imidazo[4,5-c]pyridine-2-carboxamide]
Human PD-1/PD-L1 binding
  IC50: 3.6 nM
[1]
  Emax: 96%
  IC50: 1.3 nM

## COc1cc(C(=O)Nc2cccc(-c3cccc(NC(=O)c4nc5c(n4C)CCN(C)C5)c3Cl)c2C)ncc1CNC[C@@H]1CCC(=O)N1 [Embodiment 39, (S)—N-(2-Chloro-3′-(4-methoxy-5-((((5-carbonylpyrrolidin-2-yl)methyl)amino)methyl)picolinamido)-2′-methyl-[1,1′-biphenyl]-3-yl)-1,5-dimethyl-4,5,6,7-tetrahydro-1H-imidazo[4,5-c]pyridine-2-carboxamide]
Human PD-1/PD-L1 binding
  IC50: 5 nM
[1]
  Emax: 97%
  IC50: 1.9 nM

## C=CCNCc1cnc(C(=O)Nc2cccc(-c3cccc(NC(=O)c4nc5c(n4C)CCN(C)C5)c3Cl)c2C)cc1OC [Embodiment 41, N-(3′-(5-((Allylamino)methyl)-4-methoxypicolinamido)-2-chloro-2′-methyl-[1,1′-biphenyl]-3-yl)-1,5-dimethyl-4,5,6,7-tetrahydro-1H-imidazo[4,5-c]pyridine-2-carboxamide]
Human PD-1/PD-L1 binding
  IC50: 4 nM
[1]
  Emax: 90%
  IC50: 1.9 nM

## COc1cc(C(=O)Nc2cccc(-c3cccc(NC(=O)c4nc5c(n4C)CCN(C)C5)c3Cl)c2C)ncc1CO [Embodiment 49, N-(2-Chloro-3′-(5-(2-hydroxymethyl)-4-methoxypicolinamido)-2′-methyl-[1,1′-biphenyl]-3-yl)-1,5-dimethyl-4,5,6,7-tetrahydro-1H-imidazo[4,5-c]pyridine-2-carboxamide]
Human PD-1/PD-L1 binding
  IC50: 5.1 nM
[1]
  Emax: 93%
  IC50: 10.7 nM

## Cc1c(NC(=O)c2cc(C3CC3)c(CO)cn2)cccc1-c1cccc(NC(=O)c2nc3c(n2C)CCN(C)C3)c1Cl [Embodiment 51, N-(2-Chloro-3′-(4-cyclopropyl-5-(hydroxymethyl)picolinamido)-2′-methyl-[1,1′-biphenyl]-3-yl)-1,5-dimethyl-4,5,6,7-tetrahydro-1H-imidazo[4,5-c]pyridine-2-carboxamide]
Human PD-1/PD-L1 binding
  IC50: 5.5 nM
[1]
  Emax: 91%
  IC50: 11.8 nM

## COc1cc(-c2cccc(-c3cccc(NC(=O)c4nc5c(n4C)CCN(C)C5)c3Cl)c2Cl)ncc1CNC[C@@H]1CCC(=O)N1 [Embodiment 56, (S)—N-(2,2′-Dichloro-3′-(4-methoxy-5-((((5-carbonylpyrrolidin-2-yl)methyl)amino)methyl)pyridin-2-yl)-[1,1′-biphenyl]-3-yl)-1,5-dimethyl-4,5,6,7-tetrahydro-1H-imidazo[4,5-c]pyridine-2-carboxamide]
Human PD-1/PD-L1 binding
  IC50: 2.1 nM
[1]
  Emax: 91%
  IC50: 12.2 nM

## COc1cc(-c2cccc(-c3cccc(NC(=O)c4nc5c(n4C)CCN(C)C5)c3Cl)c2C)ncc1CNC1CCOCC1 [Embodiment 59, N-(2-Chloro-3′-(4-methoxy-5-(((tetrahydro-2H-pyran-4-yl)amino)methyl)pyridin-2-yl)-2′-methyl-[1,1′-biphenyl]-3-yl)-1,5-dimethyl-4,5,6,7-tetrahydro-1H-imidazo[4,5-c]pyridine-2-carboxamide]
Human PD-1/PD-L1 binding
  IC50: 4.7 nM
[1]
  Emax: 85%
  IC50: 9.6 nM

## COc1nc(OCc2cccc(-c3cccc(NC(=O)c4nc5c(n4C)CCN(C)C5)c3Cl)c2C)nc(OC)c1CN1CCCC[C@H]1C(=O)O [Embodiment 170, (S)-1-((2-((2′-Chloro-3′-(1,5-dimethyl-4,5,6,7-tetrahydro-1H-imidazo[4,5-c]pyridine-2-carboxamido)-2-methyl-[1,1′-biphenyl]-3-yl)methoxy)-4,6-dimethoxypyrimidin-5-yl)methyl)piperidine-2-carboxylic Acid]
Human PD-1/PD-L1 binding
  IC50: 4.1 nM
